In US5753617A, “Peptide inhibitors of cellular adhesion” (Centocor, Inc., priority 1995, dated 1998) one finds ring closure, yield of all isomers and IC50 data, which are given here for ten compounds.

The conditions of data set [1]: disulfide bond, water.
In a further data set the target is T1, P-selectin (Homo sapiens, UniProt P16109).
T1 construct: P-selectin is isolated from human platelet lysates; from tissue; host or cells: human platelets (outdated platelet packs from a blood bank)
T1 sequence (P16109 42-830): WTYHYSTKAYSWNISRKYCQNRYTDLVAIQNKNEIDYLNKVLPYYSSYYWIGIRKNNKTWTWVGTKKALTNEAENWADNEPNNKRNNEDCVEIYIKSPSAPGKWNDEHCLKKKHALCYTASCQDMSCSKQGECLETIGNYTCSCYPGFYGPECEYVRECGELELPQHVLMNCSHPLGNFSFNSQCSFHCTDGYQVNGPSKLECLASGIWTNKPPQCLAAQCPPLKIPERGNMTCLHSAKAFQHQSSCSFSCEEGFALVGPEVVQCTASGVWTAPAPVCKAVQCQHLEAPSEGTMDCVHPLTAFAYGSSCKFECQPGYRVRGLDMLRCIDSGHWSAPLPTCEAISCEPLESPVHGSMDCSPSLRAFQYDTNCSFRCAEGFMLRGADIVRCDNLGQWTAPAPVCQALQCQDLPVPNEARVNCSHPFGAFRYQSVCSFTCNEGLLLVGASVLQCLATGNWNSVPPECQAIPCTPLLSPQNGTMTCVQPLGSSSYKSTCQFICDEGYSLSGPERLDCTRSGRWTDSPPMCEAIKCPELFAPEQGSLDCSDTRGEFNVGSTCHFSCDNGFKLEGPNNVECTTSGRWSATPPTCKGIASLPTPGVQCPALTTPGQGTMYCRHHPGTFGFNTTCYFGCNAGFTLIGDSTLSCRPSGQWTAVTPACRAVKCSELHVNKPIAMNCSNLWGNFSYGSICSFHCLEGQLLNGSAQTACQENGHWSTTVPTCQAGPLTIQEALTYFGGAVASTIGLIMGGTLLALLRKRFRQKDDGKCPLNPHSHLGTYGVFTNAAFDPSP
The data set is described as follows: Inhibition of human neutrophil adhesion to purified P-selectin immobilized on plastic wells. The format is cell-based. As to conditions: inhibiting the binding of human neutrophils to P-selectin. An outline of the steps:
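Isolated human neutrophils (2×10^5 per well) in HBSS with Ca2+/Mg2+ and HSA added to wells coated overnight at 4° C with platelet-derived P-selectin (5 micrograms/mL), HSA-blocked; 20 min at 22° C. Nonadherent cells removed by inverted centrifugation at 150 g; adherent cells quantified by myeloperoxidase activity.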

Read-outs that look alike come from different tables or passages of the source. Where a SMILES comes first, the peptide text is derived from it. Bridges are numbered along the chain shown (N, C = ends). [ ]: non-standard residue; d: D form. Ava = NCCCCC(=O)O

The IC50 is the concentration that gives 50% inhibition. Take `CC(C)[C@@H](NC(=O)[C@@H](Cc1c[nH]c2ccccc12)NC(=O)[C@H](NC(=O)[C@@H](Cc1c[nH]c2ccccc12)NC(=O)[C@H]1CSSC[C@@H](NC(=O)[C@@H](CCCCN)NC(=O)[C@H](N)CCCNC(=N)N)C(=O)NCC(=O)N[C@@H](CC(=O)O)C(=O)N1)[C@H](C)O)C(N)=O` [(42)] (H-[dR][dK][dC]GD[dC][dW][dT][dW][dV]-NH2; disulfide 3-6): the ring closure, yield of all isomers in data set [1] (from CC(C)[C@@H](NC(=O)[C@@H](Cc1c[nH]c2ccccc12)NC(=O)[C@H](NC(=O)[C@@H](Cc1c[nH]c2ccccc12)NC(=O)[C@@H](CS)NC(=O)[C@H](CC(=O)O)NC(=O)CNC(=O)[C@@H](CS)NC(=O)[C@@H](CCCCN)NC(=O)[C@H](N)CCCNC(=N)N)[C@H](C)O)C(N)=O, Cu wire, dilute NH4OH, pH 8, 3.19 mM, 20.0 h) was 9.7%. Moreover, the IC50 at P-selectin came out at 944 µM.

As to `CC(C)[C@@H](NC(=O)[C@@H](Cc1c[nH]c2ccccc12)NC(=O)[C@H](NC(=O)[C@@H](Cc1c[nH]c2ccccc12)NC(=O)[C@H]1CSSC[C@@H](NC(=O)[C@@H](CCCCN)NC(=O)[C@H](N)CCCNC(=N)N)C(=O)NCC(=O)N[C@@H](CCCCN)C(=O)N1)[C@H](C)O)C(N)=O` [(71)] (H-[dR][dK][dC]GK[dC][dW][dT][dW][dV]-NH2; disulfide 3-6), in data set [1] (from CC(C)[C@@H](NC(=O)[C@@H](Cc1c[nH]c2ccccc12)NC(=O)[C@H](NC(=O)[C@@H](Cc1c[nH]c2ccccc12)NC(=O)[C@@H](CS)NC(=O)[C@H](CCCCN)NC(=O)CNC(=O)[C@@H](CS)NC(=O)[C@@H](CCCCN)NC(=O)[C@H](N)CCCNC(=N)N)[C@H](C)O)C(N)=O, DMSO, 0.181 mM, 72.0 h), the ring closure, yield of all isomers was determined as 10.4%. This compound yielded an IC50 at P-selectin of 2000 µM.

In the case of `CC(C)[C@H](NC(=O)[C@H](Cc1c[nH]c2ccccc12)NC(=O)[C@@H](NC(=O)[C@H](Cc1c[nH]c2ccccc12)NC(=O)[C@@H]1CSSC[C@H](NC(=O)[C@@H](N)CCCCN)C(=O)NCC(=O)NCC(=O)N1)[C@@H](C)O)C(N)=O` [(27)] (H-KCGGCWTWV-NH2; disulfide 2-5), in data set [1] (from CC(C)[C@H](NC(=O)[C@H](Cc1c[nH]c2ccccc12)NC(=O)[C@@H](NC(=O)[C@H](Cc1c[nH]c2ccccc12)NC(=O)[C@H](CS)NC(=O)CNC(=O)CNC(=O)[C@H](CS)NC(=O)[C@@H](N)CCCCN)[C@@H](C)O)C(N)=O, K3Fe(CN)6/NH4OH (half) and DMSO (half), 0.37 mM, 16.0 h), the ring closure, yield of all isomers was 10.9%. The IC50 on P-selectin was found to be 22 µM.

For `CC[C@@H](C)[C@H]1NC(=O)[C@H](NC(=O)[C@@H](CCCCN)NC(=O)[C@H](N)CCCNC(=N)N)CSSC[C@H](C(=O)N[C@H](Cc2c[nH]c3ccccc23)C(=O)N[C@@H](C(=O)N[C@H](Cc2c[nH]c3ccccc23)C(=O)N[C@@H](C(N)=O)C(C)C)[C@H](C)O)NC(=O)[C@H](Cc2ccccc2)NC1=O` [(93)] (H-[dR][dK][dC][dI]F[dC][dW][dT][dW][dV]-NH2; disulfide 3-6), the ring closure, yield of all isomers in data set [1] (from CC[C@@H](C)[C@@H](NC(=O)[C@@H](CS)NC(=O)[C@@H](CCCCN)NC(=O)[C@H](N)CCCNC(=N)N)C(=O)N[C@@H](Cc1ccccc1)C(=O)N[C@H](CS)C(=O)N[C@H](Cc1c[nH]c2ccccc12)C(=O)N[C@@H](C(=O)N[C@H](Cc1c[nH]c2ccccc12)C(=O)N[C@@H](C(N)=O)C(C)C)[C@H](C)O, DMSO, 0.671 mM, 16.0 h) is 22.3%. At P-selectin, this compound had an IC50 of 67.5 µM.

`CC(C)[C@@H](NC(=O)[C@@H](Cc1c[nH]c2ccccc12)NC(=O)[C@H](NC(=O)[C@H]1CCCN1C(=O)[C@H]1CSSC[C@@H](NC(=O)[C@@H](CCCCN)NC(=O)[C@H](N)CCCNC(=N)N)C(=O)NCC(=O)N[C@@H](Cc2ccccc2)C(=O)N1)[C@H](C)O)C(N)=O` [(76)] (H-[dR][dK][dC]GF[dC][dP][dT][dW][dV]-NH2; disulfide 3-6) gave a ring closure, yield of all isomers in data set [1] (from CC(C)[C@@H](NC(=O)[C@@H](Cc1c[nH]c2ccccc12)NC(=O)[C@H](NC(=O)[C@H]1CCCN1C(=O)[C@@H](CS)NC(=O)[C@H](Cc1ccccc1)NC(=O)CNC(=O)[C@@H](CS)NC(=O)[C@@H](CCCCN)NC(=O)[C@H](N)CCCNC(=N)N)[C@H](C)O)C(N)=O, DMSO, 0.14 mM, 192.0 h) of 20.6%. On P-selectin, this compound showed an IC50 of 105 µM.

For the compound `CC(C)[C@@H](NC(=O)[C@@H](Cc1c[nH]c2ccccc12)NC(=O)[C@H](NC(=O)[C@@H](Cc1c[nH]c2ccccc12)NC(=O)[C@H]1CSSC[C@@H](NC(=O)[C@@H](CCCCN)NC(=O)[C@H](N)CCCNC(=N)N)C(=O)N2CCC[C@H]2C(=O)N[C@@H](Cc2ccccc2)C(=O)N1)[C@H](C)O)C(N)=O` [(84)] (H-[dR][dK][dC]PF[dC][dW][dT][dW][dV]-NH2; disulfide 3-6), in data set [1] (from CC(C)[C@@H](NC(=O)[C@@H](Cc1c[nH]c2ccccc12)NC(=O)[C@H](NC(=O)[C@@H](Cc1c[nH]c2ccccc12)NC(=O)[C@@H](CS)NC(=O)[C@H](Cc1ccccc1)NC(=O)[C@@H]1CCCN1C(=O)[C@@H](CS)NC(=O)[C@@H](CCCCN)NC(=O)[C@H](N)CCCNC(=N)N)[C@H](C)O)C(N)=O, air (copper wire, ammonium acetate pH 8.5), 0.756 mM, 25.0 °C), the ring closure, yield of all isomers was found to be 12%. Moreover, at P-selectin, the IC50 was 26.4 µM.

Take `CC(C)[C@@H](NC(=O)[C@@H](Cc1ccccc1)NC(=O)[C@H](NC(=O)[C@@H](Cc1c[nH]c2ccccc12)NC(=O)[C@H]1CSSC[C@@H](NC(=O)[C@@H](CCCCN)NC(=O)[C@H](N)CCCNC(=N)N)C(=O)NCC(=O)N[C@@H](Cc2ccccc2)C(=O)N1)[C@H](C)O)C(N)=O` [(79)] (H-[dR][dK][dC]GF[dC][dW][dT][dF][dV]-NH2; disulfide 3-6): the ring closure, yield of all isomers in data set [1] (from CC(C)[C@@H](NC(=O)[C@@H](Cc1ccccc1)NC(=O)[C@H](NC(=O)[C@@H](Cc1c[nH]c2ccccc12)NC(=O)[C@@H](CS)NC(=O)[C@H](Cc1ccccc1)NC(=O)CNC(=O)[C@@H](CS)NC(=O)[C@@H](CCCCN)NC(=O)[C@H](N)CCCNC(=N)N)[C@H](C)O)C(N)=O, DMSO, 0.101 mM) turned out to be 15.2%. In addition, the IC50 on P-selectin worked out at 7.7 µM.

In turn, `CC(C)[C@@H](NC(=O)[C@@H](Cc1c[nH]c2ccccc12)NC(=O)[C@H](NC(=O)[C@@H](Cc1c[nH]c2ccccc12)NC(=O)[C@H]1CSSC[C@@H](NC(=O)[C@@H](CCCCN)NC(=O)[C@H](N)CCCNC(=N)N)C(=O)NCCCCC(=O)N1)[C@H](C)O)C(N)=O` [(21)] (H-[dR][dK][dC][Ava][dC][dW][dT][dW][dV]-NH2; disulfide 3-5) came in with a ring closure, yield of all isomers in data set [1] (from CC(C)[C@@H](NC(=O)[C@@H](Cc1c[nH]c2ccccc12)NC(=O)[C@H](NC(=O)[C@@H](Cc1c[nH]c2ccccc12)NC(=O)[C@@H](CS)NC(=O)CCCCNC(=O)[C@@H](CS)NC(=O)[C@@H](CCCCN)NC(=O)[C@H](N)CCCNC(=N)N)[C@H](C)O)C(N)=O, DMSO, 0.241 mM, 16.0 h) of 13.2%. In addition, the IC50 at P-selectin turned out to be 23 µM.

Take `CC(C)C[C@@H]1NC(=O)CNC(=O)[C@H](NC(=O)[C@@H](CCCCN)NC(=O)[C@H](N)CCCNC(=N)N)CSSC[C@H](C(=O)N[C@H](Cc2c[nH]c3ccccc23)C(=O)N[C@@H](C(=O)N[C@H](Cc2c[nH]c3ccccc23)C(=O)N[C@@H](C(N)=O)C(C)C)[C@H](C)O)NC1=O` [(69)] (H-[dR][dK][dC]GL[dC][dW][dT][dW][dV]-NH2; disulfide 3-6): the ring closure, yield of all isomers in data set [1] (from CC(C)C[C@H](NC(=O)CNC(=O)[C@@H](CS)NC(=O)[C@@H](CCCCN)NC(=O)[C@H](N)CCCNC(=N)N)C(=O)N[C@H](CS)C(=O)N[C@H](Cc1c[nH]c2ccccc12)C(=O)N[C@@H](C(=O)N[C@H](Cc1c[nH]c2ccccc12)C(=O)N[C@@H](C(N)=O)C(C)C)[C@H](C)O, DMSO, 0.252 mM, 25.0 °C, 96.0 h) came to 8.3%. On P-selectin, this compound registered an IC50 of 146 µM.

Turning to `CC(C)[C@@H](NC(=O)[C@@H](Cc1c[nH]c2ccccc12)NC(=O)[C@H](NC(=O)[C@@H](Cc1c[nH]c2ccccc12)NC(=O)[C@H]1CSSC[C@@H](NC(=O)[C@@H](CCCCN)NC(=O)[C@H](N)CCCNC(=N)N)C(=O)NCC(=O)N[C@@H](CCC(=O)O)C(=O)N1)[C@H](C)O)C(N)=O` [(66)] (H-[dR][dK][dC]GE[dC][dW][dT][dW][dV]-NH2; disulfide 3-6), the ring closure, yield of all isomers in data set [1] (from CC(C)[C@@H](NC(=O)[C@@H](Cc1c[nH]c2ccccc12)NC(=O)[C@H](NC(=O)[C@@H](Cc1c[nH]c2ccccc12)NC(=O)[C@@H](CS)NC(=O)[C@H](CCC(=O)O)NC(=O)CNC(=O)[C@@H](CS)NC(=O)[C@@H](CCCCN)NC(=O)[C@H](N)CCCNC(=N)N)[C@H](C)O)C(N)=O, Cu wire, NH4OH, 3.16 mM, 20.0 h) was 7.4%. Further, the IC50 on P-selectin came out at 287 µM.
